Assay results: patent US6034066A, “Cysteine protease inhibitors for use in treatment of IGE mediated allergic diseases” (Peptide Therapeutics Limited, priority 1995, dated 2000)

Target: T1, Der p I (Dermatophagoides pteronyssinus, UniProt P08176)
T1 construct: tissue SmithKline-Beecham (crude mite extract); host or cells: house dust mite extract, purified on immobilised anti-Der p I antibody 4C1
T1 sequence (P08176 99-320): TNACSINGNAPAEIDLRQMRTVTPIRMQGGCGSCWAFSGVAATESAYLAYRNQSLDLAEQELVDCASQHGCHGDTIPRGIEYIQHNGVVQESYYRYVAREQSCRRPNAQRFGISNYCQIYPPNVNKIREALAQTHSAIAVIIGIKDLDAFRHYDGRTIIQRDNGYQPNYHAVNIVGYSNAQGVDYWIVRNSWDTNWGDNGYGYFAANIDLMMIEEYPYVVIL
Assay: Inhibition (inactivation) kinetics of Der p I, fluorogenic substrate assay
Type: biochemical
Conditions: second order inactivation rate constant; 50 mM potassium phosphate pH 8.25, 1 mM EDTA, 1 mM DTT, 25° C.; purified Der p I
Description: All Der-p I enzyme assays were routinely carried out in 50 mM potassium phosphate; pH 8.25 containing 1 mM ethylenediaminetetraaceticacid (EDTA) and 1 mM dithiothreitol (DTT). Product formation was monitored with respect to time by measuring the increase in fluorescence emission at 420 nm and exciting at 320 nm. All assays were carried out at 25° C. Stock solutions of the various substrates and/or inhibitors were made up in 100% dimethylsulphoxide (DMSO).
The reaction of enzyme and inhibitor is comprised of two steps. The first is binding of enzyme and inhibitor to produce the enzyme inhibitor complex (E.I). This step is assumed to be rapid and reversible, relative to the other steps, and no chemical reaction occurs. In this case k1 is the second order rate constant for the formation of the E.I complex and k-1 is the first order rate constant for the breakdown of the E.I. The second step in the process, occurring at a rate k2, is the formation of the enzyme-inhibitor covalent complex (EI) resulting in irreversible inactivation of the enzyme.
The practice of inactivation kinetics of enzymes have been described by two standard accepted methods (Schemes 1 and 2). The first (Scheme 1) is the dilution method described by Kitz, C. G. and Wilson, I. B., (1962), J. Biol. Chem., 237, 3245-3249. In this case enzyme and inhibitor are pre-incubated for a set period of time prior to quenching of this reaction by the addition of an excess of substrate. The second method (Scheme 2), is monitoring enzyme inactivation in the presence of substrate and irreversible inhibitors. This method has been described previously (Tian, W. -X. & Tsou, C. -L, (1982), Biochemistry, 21, 1028-1032; Morrison, J. F. & Walsh, C. T., (1988), Adv. Enzymol. Relat. Areas Mol. Biol., 61, 201-301) and the equations describing the kinetics are shown below (Eq. 1, 2 and 3). In both cases the inhibitor concentration employed is at least 10 times greater than the enzyme concentration in order to maintain pseudo-first order conditions.
kapp =k2 [I]/1+[S]/KM [I]+K1) Eq. 1
[Product]=vs t+(v0 -v5)[1-exp(-kapp t)]/kapp +dEq.
second order rate constant=(kapp /[I])(1+[S]/KM) Eq. 3
The apparent inactivation rate constant (kapp) was calculated using Eq. 2; where vo is the initial velocity of the reaction, vs is asymptotic steady-state velocity of the reaction, d is the intercept at time zero. The second order rate was calculated using Eq. 3.
Assays were routinely carried out in 50 mM potassium phosphate; pH 8.25 containing 1 mM ethylenediaminetetraaceticacid (EDTA) and 1 mM dithiothreitol (DTT). The fluorogenic substrate was 2-aminobenzoylvalylalanylnorleucylseryl-(3-nitro)tyrosinyl aspartylamide. Product formation was monitored with respect to time by measuring the increase in fluorescence emission at 420 nm and exciting at 320 nm. Assays were carried out at 25° C. Stock solutions of the various inhibitors were made up in 100% dimethylsulphoxide.
Inactivation kinetics for various inhibitors were carried out using the techniques already described. In the dilution method, generally 100 nM Der p I was mixed and incubated with 0.5-10 uM of the inhibitor and aliquots were taken out at given time points (sampling time) and the residual enzyme activity determined by a ten-fold dilution into assay buffer containing saturating amounts of substrate. The residual activity was related to the sampling time and the curve fitted by computational non-linear least square regression analysis. In cases where the second order rate constants were greater than 10^5 M^-1 s^-1, second order conditions were employed (i.e. equimolar amounts of enzyme and inhibitor). Generally stoichiometric amounts of enzyme and inhibitor were incubated for given time intervals (sampling time) and the reaction stopped by a ten-fold dilution of this mixture by saturating amounts of substrate in assay buffer. […]

| Compound | kobs /[I] |
| --- | --- |
| CCCC[C@H](NC(=O)[C@H](C)NC(=O)[C@@H](NC(=O)c1ccccc1)C(C)C)C(=O)COC(=O)c1c(C(F)(F)F)cccc1C(F)(F)F [Compound 3, N-Benzoyl-L-valyl-L-alanyl-L-norleucine 2,6-bis (trifluoromethyl)benzoyloxymethyl ketone] | > 10^7 M^- s^-1 |
| CCCC[C@H](NC(=O)[C@H](C)NC(=O)[C@@H](NC(=O)c1ccccc1)C(C)C)C(=O)COC(=O)c1c(C)cccc1C [Compound 4, N-Benzoyl-L-valyl-L-alanyl-L-norleucine 2,6-dimethyl benzoyloxy methyl ketone] | 1.6 × 10^7 M^- s^-1 |
| CCCC[C@H](NC(=O)[C@H](C)NC(=O)[C@@H](NC(=O)c1ccccc1)C(C)C)C(=O)COC(=O)c1c(Cl)cccc1Cl [Compound 6, N-Benzoyl-L-valyl-L-alanyl-L-norleucine 2,6-dichlorobenzoyloxymethyl ketone] | 6.8 × 10^7 M^- s^-1 |
| CCCC[C@H](NC(=O)[C@H](C)NC(=O)[C@@H](NC(=O)c1ccccc1)C(C)C)C(=O)COC(=O)c1ccccc1 [Compound 7, N-Benzoyl-L-valyl-L-alanyl-L-norleucine benzoyloxymethyl ketone] | 3.7 × 10^5 M^- s^-1 |
| CCCC[C@H](NC(=O)[C@H](C)NC(=O)[C@@H](NC(=O)c1ccccc1)C(C)C)C(=O)COC(=O)c1c(F)c(F)c(F)c(F)c1F [Compound 8, N-Benzoyl-L-valyl-L-alanyl-L-norleucine 2,3,4,5,6-pentafluoro benzoyloxy methyl ketone] | > 10^7 M^- s^-1 |
| CCCC[C@H](NC(=O)[C@H](C)NC(=O)[C@@H](NC(=O)c1ccccc1)C(C)C)C(=O)COC(=O)[C@@H](COC(C)(C)C)NC(=O)OCc1ccccc1 [Compound 10, N-Benzoyl-L-valyl-L-alanyl-L-norleucine N-(-benzyloxycarbonyl)-D-serinyl-(O-tert-butyl)oxymethyl ketone] | 1.9 × 10^5 M^- s^-1 |
| CCCC[C@H](NC(=O)[C@H](C)NC(=O)[C@@H](NC(=O)c1ccccc1)C(C)C)C(=O)COC(=O)[C@@H](CO)NC(=O)OCc1ccccc1 [Compound 11, N-Benzoyl-L-valyl-L-alanyl-L-norleucine N(-benzyloxycarbonyl)-D-serinyloxy methyl ketone] | 1.2 × 10^6 M^- s^-1 |
| CCCC[C@H](NC(=O)[C@H](C)NC(=O)[C@@H](NC(=O)c1ccccc1)C(C)C)C(=O)COC(=O)c1c(Cl)cccc1Cl [Compound 13, N-Benzoyl-L-valyl-L-alanyl-L-norleucine 2,6-dichlorophenylacyloxy methyl ketone] | 6.6 × 10^5 M^- s^-1 |
| CCCC[C@H](NC(=O)[C@H](C)NC(=O)[C@@H](NC(=O)c1ccccc1)C(C)C)C(=O)NOC(=O)c1ccccc1 [Compound 15, N-(Benzoyl amino-L-valyl-L-alanyl-L-norleucyl)-O-benzoyl hydroxamate] | 1.5 × 10^5 M^- s^-1 |
| CCCC[C@H](NC(=O)[C@H](C)NC(=O)[C@@H](NC(=O)c1ccccc1)C(C)C)C(=O)NOC(=O)c1c(C)cccc1C [Compound 16, N-(N-benzoyl-L-valyl-L-alanyl-L-norleucyl)-O-2,6-dimethyl-benzoyl hydroxamate] | 1.6 × 10^4 M^- s^-1 |
| CCOC(=O)/C=C/[C@H](CC(C)C)NC(=O)[C@H](C)NC(=O)[C@@H](NC(=O)OC(C)(C)C)C(C)C [Compound 23] | 1.7 × 10^3 M^- s^-1 |
| CC(C)C[C@@H](/C=C/C(=O)OCC(F)(F)F)NC(=O)[C@H](C)NC(=O)[C@@H](NC(=O)OC(C)(C)C)C(C)C [Compound 25] | 3.1 × 10^3 M^- s^-1 |
| CCOC(=O)/C=C/[C@H](CC(C)C)NC(=O)[C@H](C)NC(=O)[C@@H](NC(=O)c1ccccc1)C(C)C [Compound 26] | 4.1 × 10^3 M^- s^-1 |
| CCOC(=O)/C=C/[C@H](CC(C)C)NC(=O)[C@H](C)NC(=O)[C@@H](NC(=O)c1ccccc1C(F)(F)F)C(C)C [Compound 27] | 6.3 × 10^3 M^- s^-1 |
| CCOC(=O)/C=C/[C@H](CC(C)C)NC(=O)[C@H](C)NC(=O)[C@@H](NC(=O)c1ccc2c(c1)OCO2)C(C)C [Compound 28] | 6.8 × 10^3 M^- s^-1 |
| CCOC(=O)/C=C/[C@H](CC(C)C)NC(=O)[C@H](C)NC(=O)[C@@H](NC(=O)Nc1ccccc1)C(C)C [Compound 29] | 4.6 × 10^3 M^- s^-1 |
| CCOC(=O)/C=C/[C@H](CC(C)C)NC(=O)[C@H](C)NC(=O)[C@@H](NC(=O)N(c1ccccc1)c1ccccc1)C(C)C [Compound 30] | 7.5 × 10^3 M^- s^-1 |
| CCOC(=O)/C=C/[C@H](CC(C)C)NC(=O)[C@H](C)NC(=O)[C@@H](NC(=O)C1c2ccccc2Oc2ccccc21)C(C)C [Compound 34] | 1.1 × 10^4 M^- s^-1 |
| CCOS(=O)(=O)/C=C/[C@H](CC(C)C)NC(=O)[C@H](C)NC(=O)[C@@H](NC(=O)OC(C)(C)C)C(C)C [Compound 40, Ethyl(S)-(E)-3-((tert-butoxycarbonylamino-L-valyl)-L-alanyl)amino-5-methylhexenylsulfonate] | 6.9 × 10^4 M^- s^-1 |
| N-Benzoyl-L-valyl-L-alanyl-L-norleucine 1,1-dimethylpropyloxymethyl ketone [Compound 9] | 2.3 × 10^4 M^- s^-1 |
| N-Benzoyl-L-valyl-L-alanyl-L-norleucine 2-furanoxy methyl ketone [Compound 12] | 1.9 × 10^5 M^- s^-1 |

Same assay, conditions: second order inactivation rate constant; 50 mM potassium phosphate pH 8.25, 1 mM EDTA, 1 mM DTT, 25° C.; purified Der p I; read-out: kobs /[I]

| Compound | kinact/KI |
| --- | --- |
| CC(C)C[C@@H](/C=C/S(=O)(=O)c1ccccc1)NC(=O)[C@H](C)NC(=O)[C@@H](NNC(=O)OC(C)(C)C)C(C)C [Compound 36, (S)-(E)-3-((tert-butoxycarbonylamino-L-valyl)-L-alanyl)amino-1-phenylsulfonyl-5-methyl-1-hexene] | 6400 M⁻¹ s⁻¹ |
| CC(C)C[C@@H](/C=C/S(C)(=O)=O)NC(=O)[C@H](C)NC(=O)[C@@H](NNC(=O)OC(C)(C)C)C(C)C [Compound 38, (S)-(E)-3-((tert-butoxycarbonylamino-L-valyl)-L-alanyl)amino-1-methylsulfonyl-5-methyl-1-hexene] | 1100 M⁻¹ s⁻¹ |
